# Test results published in PubChem BioAssay (NCI).
#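 Step 1: Grow cells in 96-well plates. Step 2: Expose to compound for 48 hours at 5 concentrations. Step 3: Interpolate endpoints linearly; if unreached, use highest concentration. GI50 is the concentration that inhibits growth by half. The concentration for full growth arrest is given as TGI.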
# Columns and labels:
# Assay in all cases: NCI-60 cell line screen, 48 h
# [1] = tested on: NCI-H23 lung
# [2] = tested on: ACHN renal
# [3] = tested on: CAKI-1 renal
# [4] = tested on: SNB-75 CNS
# [5] = tested on: HS 578T breast
# [6] = tested on: HCT-116 colon
# [7] = tested on: SR leukemia
# [8] = tested on: PC-3 prostate
# [9] = tested on: MDA-MB-435
# [10] = tested on: UO-31 renal
# [11] = tested on: U251 CNS
# [12] = tested on: M14 melanoma
# [13] = tested on: HL-60(TB) leukemia
# [14] = tested on: DU-145 prostate
# [15] = tested on: SF-295 CNS
# [16] = tested on: SF-268 CNS
# [17] = tested on: RPMI-8226 leukemia
# [18] = tested on: NCI-H226 lung
# [19] = tested on: KM12 colon
# [20] = tested on: SK-MEL-5 melanoma
# [21] = tested on: HOP-62 NSCLC
# [22] = tested on: T-47D breast
# [23] = tested on: RXF 393 renal
# [24] = tested on: LOX IMVI melanoma
# [25] = tested on: OVCAR-4 ovarian
# [26] = tested on: NCI/ADR-RES ovarian
# [27] = tested on: HCT-15 colon
# [28] = tested on: A549 NSCLC
# [29] = tested on: COLO 205 colon
# [30] = tested on: MOLT-4 leukemia
# [31] = tested on: OVCAR-5 ovarian
# [32] = tested on: A498 renal
# [33] = tested on: SF-539 CNS
# [34] = tested on: MDA-MB-231 breast
# [35] = tested on: K-562 leukemia
# [36] = tested on: HT29 colon
# [37] = tested on: SK-MEL-2 melanoma
# [38] = tested on: SW-620 colon
# [39] = tested on: IGROV1 ovarian
# [40] = tested on: 786-0 renal
# [41] = tested on: SNB-19 CNS
# [42] = tested on: UACC-257 melanoma
# [43] = tested on: OVCAR-8 ovarian
# [44] = tested on: EKVX NSCLC
# [45] = tested on: UACC-62 melanoma
# [46] = tested on: SK-MEL-28 melanoma
# [47] = tested on: NCI-H460 lung
# [48] = tested on: NCI-H522 lung
# [49] = tested on: SN12C renal
# [50] = tested on: BT-549 breast
# [51] = tested on: CCRF-CEM leukemia
# [52] = tested on: HCC-2998 colon
# [53] = tested on: OVCAR-3 ovarian
# [54] = tested on: MCF7 breast
# [55] = tested on: MALME-3M melanoma
# [56] = tested on: TK-10 renal
# [57] = tested on: SK-OV-3 ovarian
smiles,measurement,setting,value
CC(=O)C1=C(O)C=C2Oc3c(C(=O)/C=C/c4c(Cl)cccc4Cl)c(O)c(C)c(O)c3[C@]2(C)C1=O,GI50,[1],1230 nM
same,TGI,[1],5820 nM
same,GI50,[2],1640 nM
same,TGI,[2],8070 nM
same,GI50,[3],832 nM
same,TGI,[3],8920 nM
same,GI50,[4],2120 nM
same,TGI,[4],4760 nM
same,GI50,[5],2390 nM
same,TGI,[5],7860 nM
same,GI50,[6],536 nM
same,TGI,[6],2700 nM
same,GI50,[7],1520 nM
same,TGI,[7],7700 nM
same,GI50,[8],596 nM
same,TGI,[8],2490 nM
same,GI50,[9],1810 nM
same,TGI,[9],3820 nM
same,GI50,[10],1920 nM
same,TGI,[10],7590 nM
same,GI50,[11],754 nM
same,TGI,[11],4090 nM
same,GI50,[12],961 nM
same,TGI,[12],3830 nM
same,GI50,[13],849 nM
same,TGI,[13],7080 nM
same,GI50,[14],966 nM
same,TGI,[14],6310 nM
same,GI50,[15],634 nM
same,TGI,[15],3170 nM
same,GI50,[16],856 nM
same,TGI,[16],3730 nM
same,GI50,[17],500 nM
same,TGI,[17],1770 nM
same,GI50,[18],2470 nM
same,TGI,[18],5140 nM
same,GI50,[19],1150 nM
same,TGI,[19],3990 nM
same,GI50,[20],1500 nM
same,TGI,[20],3750 nM
same,GI50,[21],1580 nM
same,TGI,[21],5080 nM
same,GI50,[22],380 nM
same,TGI,[22],2410 nM
same,GI50,[23],2320 nM
same,TGI,[23],5030 nM
same,GI50,[24],1130 nM
same,TGI,[24],3640 nM
same,GI50,[25],3190 nM
same,TGI,[25],11300 nM
same,GI50,[26],786 nM
same,TGI,[26],5210 nM
same,GI50,[27],668 nM
same,TGI,[27],2940 nM
same,GI50,[28],1580 nM
same,TGI,[28],5530 nM
same,GI50,[29],2340 nM
same,TGI,[29],5250 nM
same,GI50,[30],666 nM
same,TGI,[30],8570 nM
same,GI50,[31],3090 nM
same,TGI,[31],8130 nM
same,GI50,[32],1600 nM
same,TGI,[32],3660 nM
same,GI50,[33],2190 nM
same,TGI,[33],4910 nM
same,GI50,[34],1300 nM
same,TGI,[34],5720 nM
same,GI50,[35],619 nM
same,TGI,[35],15000 nM
same,GI50,[36],1730 nM
same,TGI,[36],6230 nM
same,GI50,[37],640 nM
same,TGI,[37],2870 nM
same,GI50,[38],640 nM
same,TGI,[38],3130 nM
same,GI50,[39],1560 nM
same,TGI,[39],9370 nM
same,GI50,[40],1710 nM
same,TGI,[40],5440 nM
same,GI50,[41],1080 nM
same,TGI,[41],5930 nM
same,GI50,[42],2010 nM
same,TGI,[42],6820 nM
same,GI50,[43],533 nM
same,TGI,[43],2060 nM
same,GI50,[44],1630 nM
same,TGI,[44],7240 nM
same,GI50,[45],677 nM
same,TGI,[45],2800 nM
same,GI50,[46],1320 nM
same,TGI,[46],3830 nM
same,GI50,[47],1170 nM
same,TGI,[47],4460 nM
same,GI50,[48],460 nM
same,TGI,[48],2770 nM
same,GI50,[49],527 nM
same,TGI,[49],1760 nM
same,GI50,[50],1430 nM
same,TGI,[50],5280 nM
same,GI50,[51],573 nM
same,TGI,[51],5430 nM
same,GI50,[52],2570 nM
same,TGI,[52],5260 nM
same,GI50,[53],1120 nM
same,TGI,[53],4220 nM
same,GI50,[54],436 nM
same,TGI,[54],2750 nM
same,GI50,[55],2100 nM
same,TGI,[55],4960 nM
same,GI50,[56],728 nM
same,TGI,[56],5170 nM
same,GI50,[57],2570 nM
same,TGI,[57],7400 nM
